In patent US20100298305A1, “TIZANIDINE FOR THE TREATMENT OF POST-TRAUMATIC STRESS DISORDER AND NIGHTMARES” (The United States Government, as represented by the …, priority 2008, published 2010):
Like-named read-outs stand apart in the source and are kept apart here.

How the values were obtained:
PTSD [1] = settings: average dose 2.4 mg; military veterans with PTSD taking or not taking antidepressant; cited from earlier work
PTSD [2] = experiment: Example 1 case summaries 1-6: tizanidine as adjunctive treatment for PTSD, anxiety, depression, psychosis or impaired cognition; assay type: in vivo, human
Experimental: Treatment was begun with sertraline 100 mg per day for anxiety and nortriptyline 25 mg at bedtime for headaches. […] Treatment with tizanidine was started and the dose was increased to 8 mg at bedtime.
Tizanidine was started and titrated up to 4 mg at bedtime along with aripiprazole (15 mg at bedtime) and clonazepam (0.5 mg daily).
These medications included sertraline (250 mg daily), divalproex sodium (2500 mg daily), quetiapine (100 mg twice daily and 400 mg at bedtime), amitriptyline (25 mg at bedtime), and tramadol (50 mg as needed for severe headache). […] A trial of tizanidine was started and the dose was titrated up to 8 mg at bedtime.
Pharmacologic Treatment and Response: While on the psychiatry unit, they were treated with sertraline for PTSD and nortriptyline for headaches and depression. […] They were started on tizanidine 4 mg at bedtime.
After approximately one year, subject agreed to a trial of tizanidine as an addition to sertraline. […] They agreed to increase the dose to 4 mg at bedtime and follow-up in four weeks. […] An atypical antipsychotic medication, aripiprazole, was added to their medications.
Treatment with tizanidine 4 mg at bedtime was added to the existing sertraline.

PTSD [3] = experiment: Example 2 case summaries 7-9: switching from once to twice-daily dosing of tizanidine
Experimental: They were continued on aripiprazole, quetiapine, sertraline, and trazodone. Treatment with tizanidine was started for the nightmares and poor sleep.
They were switched from tizanidine 8 mg at bedtime to tizanidine 6 mg in the morning and 8 mg at bedtime. […] They continued on the sertraline, divalproex, and trazodone for initial insomnia. The tizanidine was switched to 4 mg in the morning and 4 mg at bedtime.
Subject was started on tizanidine up to 8 mg at bedtime for nightmares. They also were issued a device to assist with memory problems. A rating scale for common cognitive problems was administered by speech pathology prior to issuing them a personal digital assistant as a memory assist device.
They continued to take sertraline and tizanidine. At a psychology evaluation session, subject completed two self-report instruments of PTSD and depressive symptoms to establish a baseline indication of symptom severity. […] Subject was then switched from tizanidine 8 mg at bedtime to 4 mg twice daily.
After approximately one year of being followed in the psychiatry clinic, they became more willing to try medication and agreed to a trial of tizanidine.

PTSD [4] = settings: Case 10
Excerpt: Given the prior history of ADHD, methylphenidate was cautiously added to the venlafaxine. […] They were referred to a specialty inpatient program for PTSD. During the inpatient program, the antidepressant was switched from venlafaxine to duloxetine.

[5] = cited from earlier work
[6] = fraction of the potency of clonidine; cited from earlier work
[7] = Case 2, tizanidine 4 mg at bedtime with aripiprazole 15 mg and clonazepam 0.5 mg, after two months
[8] = Case 2, tizanidine 8 mg at bedtime, other medications stopped, two months later
[9] = Case 3, tizanidine 8 mg at bedtime, after four weeks
[10] = Case 4, tizanidine 4 mg at bedtime
[11] = Case 5, tizanidine 2 mg at bedtime added to sertraline, several weeks
[12] = Case 5, tizanidine 4 mg at bedtime with sertraline, four weeks
[13] = Case 5, tizanidine 4 mg at bedtime, aripiprazole added, eight weeks later
[14] = Case 5, tizanidine 8 mg at bedtime, not taking sertraline and aripiprazole, eight weeks
[15] = Case 5, tizanidine 8 mg at bedtime, primary care appointment one month later
[16] = Case 6, tizanidine 4 mg at bedtime added to sertraline, approximately four weeks
[17] = Case 7, switched from tizanidine 8 mg at bedtime to 6 mg in the morning and 8 mg at bedtime, two months later
[18] = Case 7, tizanidine 4 mg twice daily, one month after switch
[19] = Case 7, tizanidine 8 mg at bedtime, four weeks
[20] = Case 8, tizanidine 4 mg twice daily, two weeks after switch
[21] = Case 9, trial of tizanidine, two months later
[22] = tizanidine 4 mg twice daily with methylphenidate, after four weeks

In the case of `N=C(N)NC(=O)Cc1c(Cl)cccc1Cl` [guanfacine], the “relieving signs or symptoms of PTSD compared to placebo” value (PTSD [1]) is given as “not effective compared to placebo”.
For `Clc1ccc2nsnc2c1NC1=NCCN1` [tizanidine], the daytime anxiety (PTSD [2]; Case 1, tizanidine 8 mg at bedtime, after two weeks) was “less daytime anxiety”, the reduction in nightmares (PTSD [2]; Case 1, tizanidine 8 mg at bedtime, after two weeks, subject report) was roughly 50% and the alcohol use (PTSD [2]; [7]) was “one to two”. For the same compound, the mood and energy (PTSD [2]; [7]) was “somewhat better”, the “other signs and symptoms of Major Depression, PTSD, and Psychosis NOS” value (PTSD [2]; [7]) was “unchanged” and the overall condition (PTSD [2]; [7]) was “mildly improved”. The panic attacks (PTSD [2]; [7]) was “had not experienced any panic attacks”, the overall condition (PTSD [2]; Case 2, tizanidine 8 mg at bedtime, other medications stopped by subject, two months later) was “markedly improved” and the alcohol use (PTSD [2]; Case 2, tizanidine 8 mg at bedtime, other medications stopped, preceding two months) was “had not drunk any alcohol”. For the same compound, the daytime anxiety (PTSD [2]; [8]) was “less anxious during the day”, the energy (PTSD [2]; [8]) was “improved” and the hallucinations (PTSD [2]; [8]) was “had stopped”. The “intrusive thoughts of combat or the Iraq war” value (PTSD [2]; [8]) was “less frequent”, the nightmares (PTSD [2]; [8]) was “much less frequent” and the panic attacks (PTSD [2]; [8]) was “able to leave their house without panic attacks”. For the same compound, the sleep (PTSD [2]; [8]) was “improved”, the combat-related nightmares (PTSD [2]; [9]) was “complete absence of combat-related nightmares” and the “concentration and attention during the day” value (PTSD [2]; [9]) was “easier to concentrate”. The daytime anxiety (PTSD [2]; [9]) was “substantial decrease in daytime anxiety”, the nightmares overall (PTSD [2]; [9]) was “substantial reduction in nightmares overall” and the sleep (PTSD [2]; [9]) was “significantly improved”. For the same compound, the “tremor, at rest and with action” value (PTSD [2]; [9]) was “improved”, the hallucinations (PTSD [2]; Case 3, tizanidine 8 mg at bedtime, after four weeks, quetiapine dose decreased by subject) was “greatly reduced” and the “irritability and anxiety during the day” value (PTSD [2]; [10]) was “less irritable and less anxious”. For the same compound, the nightmares (PTSD [2]; [10]) was “reduced their nightmares”, the quality of sleep (PTSD [2]; [10]) was “improved the quality of their sleep” and the nightmares (PTSD [2]; Case 4, tizanidine 4 mg at bedtime, approximately three weeks after starting) was “somewhat improved”. For the same compound, the nightmares (PTSD [2]; [11]) was “no change to nightmares”, the “side effects or other adverse effects” value (PTSD [2]; [11]) was “no side effects or other adverse effects” and the nightmares frequency (PTSD [2]; [12]) was 3-4 times per week. For the same compound, the overall condition (PTSD [2]; [12]) was “not doing well”, the panic attacks frequency (PTSD [2]; [12]) was 2-3 times per week and the alcohol use (PTSD [2]; [13]) was “one to two”. The “mood and energy level” value (PTSD [2]; [13]) was “an improvement in their mood and energy level”, the overall improvement (PTSD [2]; [13]) was “limited improvement” and the “remainder of PTSD and depressive symptoms” value (PTSD [2]; [13]) was “unchanged”. For the same compound, the panic attacks (PTSD [2]; Case 5, tizanidine 4 mg at bedtime, aripiprazole added, eight weeks later, for several weeks) was “free from panic attacks”, the side-effects (PTSD [2]; Case 5, tizanidine 4 mg at bedtime, eight weeks later) was “no side-effects” and the alcohol consumption (PTSD [2]; [14]) was “decreased to less than once per month”. For the same compound, the “anxiety and energy during the day” value (PTSD [2]; [14]) was “less anxious and more energetic”, the nightmares (PTSD [2]; [14]) was “improved” and the overall improvement (PTSD [2]; [14]) was “substantial improvement”. For the same compound, the panic attacks (PTSD [2]; [14]) was “continued to be absent”, the anxiety (PTSD [2]; [15]) was “less anxiety” and the depression (PTSD [2]; [15]) was “improved depression”. The hallucinations (PTSD [2]; [15]) was “denied having any hallucinations”, the nightmares (PTSD [2]; [15]) was “decreased nightmares” and the “feeling rested the next day” value (PTSD [2]; [16]) was “more rested the next day”. The night sweats (PTSD [2]; [16]) was “fewer night sweats”, the nightmares (PTSD [2]; [16]) was “reduction in their nightmares” and the overall sleep quality (PTSD [2]; [16]) was “improved”. For the same compound, the sleep time (PTSD [2]; [16]) was “had not increased their sleep time”, the daytime anxiety (PTSD [3]; [17]) was “greater reduction to their daytime anxiety” and the “nightmares and sleep quality” value (PTSD [3]; [17]) was “no change to the beneficial impact”. The nightmares (PTSD [3]; Case 7, tizanidine 4 mg twice daily with sertraline, divalproex, trazodone, one month after switch) was “continued to have no nightmares”, the daytime anxiety (PTSD [3]; [18]) was “no change to daytime anxiety” and the daytime cognition (PTSD [3]; [18]) was “no change in daytime cognition”. For the same compound, the “desire to smoke cigarettes” value (PTSD [3]; [18]) was “definite reduction in their desire to smoke”, the mood (PTSD [3]; [18]) was “no changes in mood” and the sleep (PTSD [3]; [18]) was “continued to have restful sleep”. The nightmares overall (PTSD [3]; Case 7, tizanidine 8 mg at bedtime with aripiprazole, quetiapine, sertraline, trazodone, four weeks) was “greatly reduced nightmares overall”, the “anxiety during the day” value (PTSD [3]; [19]) was “significantly less anxiety during the day” and the combat-related nightmares (PTSD [3]; [19]) was “complete absence of combat-related nightmares”. For the same compound, the hallucinations (PTSD [3]; [19]) was “fewer hallucinations”, the tremor (PTSD [3]; [19]) was “improved tremor” and the sleep (PTSD [3]; Case 8, switched from tizanidine 8 mg at bedtime to 4 mg twice daily, two weeks later) was “no change in sleep”. For the same compound, the “energy (new onset, gradually improving)” value (PTSD [3]; [20]) was “mild decrease in energy”, the “hypervigilance during the day” value (PTSD [3]; [20]) was “reduced hypervigilance during the day” and the “irritability during the day” value (PTSD [3]; [20]) was “less irritability during the day”. For the same compound, the nightmares (PTSD [3]; [20]) was “eliminates nightmares”, the “feeling better the next day” value (PTSD [3]; Case 8, tizanidine 8 mg at bedtime with sertraline) was “significant improvement” and the cognitive function (PTSD [3]; Case 8, tizanidine up to 8 mg at bedtime with sertraline, memory assist device also issued, following weeks) was “improved”. The “twice-daily compared to once-daily dosing” value (PTSD [3]; Case 9, tizanidine 4 mg twice daily versus 8 mg at bedtime, same total milligrams) was “clear superiority of twice-daily”, the cognitive symptoms (PTSD [3]; [21]) was “unchanged” and the headaches (PTSD [3]; [21]) was “much less intense”. The mood and energy (PTSD [3]; [21]) was “improved”, the sleep (PTSD [3]; [21]) was “better” and the anxiety (PTSD [3]; Case 9, trial of tizanidine, two months later, still startled easily and hypervigilant) was “less anxiety”. The nightmares (PTSD [4]; [22]) was “absence of nightmares”, the overall helpfulness (PTSD [4]; [22]) was “extremely helpful” and the sleep (PTSD [4]; [22]) was “greatly improved sleep”. The daytime anxiety (PTSD [4]; when taking tizanidine 4 mg twice daily) was “less daytime anxiety”, the peak serum levels ([5]; single 4 mg capsule) was roughly 4.0 ng/mL and the peak serum levels ([5]; single 4 mg tablet) was “about 2.7 ng/ml”. For the same compound, the “potency in lowering blood pressure relative to clonidine” value [6] was “one-tenth to one-fiftieth”.
